Reference: the NIST ThermoML archive (doi:10.1021/je700287u)
Numbers after ± are expanded uncertainties.

Assay: xn = mol fraction of the nth substance listed
Conditions: Liquid

CN(CCO)CCO [N-methyldiethanolamine] + O
Conditions | mass density [kg/m3]
333.04 K, 10996 kPa, x1 = 0.0369 | 1000 ± 0.4
333.04 K, 11991 kPa, x1 = 0.0369 | 1000.4 ± 0.4
333.04 K, 12996 kPa, x1 = 0.0369 | 1000.8 ± 0.4
333.04 K, 13988 kPa, x1 = 0.0369 | 1001.2 ± 0.4
333.04 K, 14991 kPa, x1 = 0.0369 | 1001.6 ± 0.4
333.04 K, 15994 kPa, x1 = 0.0369 | 1002 ± 0.4
333.04 K, 16992 kPa, x1 = 0.0369 | 1002.4 ± 0.4
333.04 K, 17985 kPa, x1 = 0.0369 | 1002.8 ± 0.4
333.04 K, 18990 kPa, x1 = 0.0369 | 1003.2 ± 0.4
333.04 K, 19977 kPa, x1 = 0.0369 | 1003.6 ± 0.4
333.05 K, 1013 kPa, x1 = 0.0893 | 1013 ± 0.4
333.05 K, 2006 kPa, x1 = 0.0893 | 1013.4 ± 0.4
333.05 K, 2994 kPa, x1 = 0.0893 | 1013.8 ± 0.4
333.05 K, 4031 kPa, x1 = 0.0893 | 1014.2 ± 0.4
333.05 K, 4999 kPa, x1 = 0.0893 | 1014.6 ± 0.4
333.05 K, 6000 kPa, x1 = 0.0893 | 1015 ± 0.4
333.05 K, 6995 kPa, x1 = 0.0893 | 1015.4 ± 0.4
333.05 K, 8005 kPa, x1 = 0.0893 | 1015.8 ± 0.4
333.05 K, 9000 kPa, x1 = 0.0893 | 1016.2 ± 0.4
333.05 K, 9992 kPa, x1 = 0.0893 | 1016.5 ± 0.4
333.05 K, 10993 kPa, x1 = 0.0893 | 1017 ± 0.4
333.05 K, 11998 kPa, x1 = 0.0893 | 1017.3 ± 0.4
333.05 K, 13000 kPa, x1 = 0.0893 | 1017.7 ± 0.4
333.05 K, 14008 kPa, x1 = 0.0893 | 1018.1 ± 0.4
333.05 K, 14983 kPa, x1 = 0.0893 | 1018.5 ± 0.4
333.05 K, 16002 kPa, x1 = 0.0893 | 1018.9 ± 0.4
333.05 K, 17032 kPa, x1 = 0.0893 | 1019.3 ± 0.4
333.05 K, 17945 kPa, x1 = 0.0893 | 1019.6 ± 0.5
333.05 K, 18989 kPa, x1 = 0.0893 | 1020 ± 0.5
333.05 K, 19994 kPa, x1 = 0.0893 | 1020.4 ± 0.5
342.91 K, 1008 kPa, x1 = 0.1302 | 1011.7 ± 0.4
342.91 K, 1996 kPa, x1 = 0.1302 | 1012.1 ± 0.4
342.91 K, 3044 kPa, x1 = 0.1302 | 1012.5 ± 0.4
342.91 K, 4015 kPa, x1 = 0.1302 | 1012.9 ± 0.4
342.91 K, 5006 kPa, x1 = 0.1302 | 1013.4 ± 0.4
342.91 K, 5995 kPa, x1 = 0.1302 | 1013.8 ± 0.4
342.91 K, 7010 kPa, x1 = 0.1302 | 1014.2 ± 0.4
342.91 K, 8001 kPa, x1 = 0.1302 | 1014.6 ± 0.4
342.91 K, 8996 kPa, x1 = 0.1302 | 1015 ± 0.4
342.91 K, 9995 kPa, x1 = 0.1302 | 1015.5 ± 0.4
342.91 K, 10992 kPa, x1 = 0.1302 | 1015.9 ± 0.4
342.91 K, 12029 kPa, x1 = 0.1302 | 1016.3 ± 0.4
342.91 K, 12993 kPa, x1 = 0.1302 | 1016.7 ± 0.4
342.91 K, 13996 kPa, x1 = 0.1302 | 1017.1 ± 0.4
342.91 K, 14997 kPa, x1 = 0.1302 | 1017.5 ± 0.4
342.91 K, 15998 kPa, x1 = 0.1302 | 1017.9 ± 0.4
342.91 K, 16997 kPa, x1 = 0.1302 | 1018.3 ± 0.4
342.91 K, 18033 kPa, x1 = 0.1302 | 1018.8 ± 0.5
342.91 K, 18977 kPa, x1 = 0.1302 | 1019.2 ± 0.5
342.91 K, 19980 kPa, x1 = 0.1302 | 1019.6 ± 0.5
342.94 K, 1029 kPa, x1 = 0.0893 | 1005.9 ± 0.4
342.94 K, 1996 kPa, x1 = 0.0893 | 1006.3 ± 0.4
342.94 K, 3018 kPa, x1 = 0.0893 | 1006.7 ± 0.4
342.94 K, 3995 kPa, x1 = 0.0893 | 1007.1 ± 0.4
342.94 K, 5000 kPa, x1 = 0.0893 | 1007.5 ± 0.4
342.94 K, 5992 kPa, x1 = 0.0893 | 1007.9 ± 0.4
342.94 K, 7008 kPa, x1 = 0.0893 | 1008.3 ± 0.4
342.94 K, 7994 kPa, x1 = 0.0893 | 1008.8 ± 0.4
342.94 K, 9001 kPa, x1 = 0.0893 | 1009.1 ± 0.4
342.94 K, 9994 kPa, x1 = 0.0893 | 1009.6 ± 0.4
342.94 K, 10983 kPa, x1 = 0.0893 | 1010 ± 0.4
342.94 K, 12000 kPa, x1 = 0.0893 | 1010.4 ± 0.4
342.94 K, 12996 kPa, x1 = 0.0893 | 1010.8 ± 0.4
342.94 K, 14014 kPa, x1 = 0.0893 | 1011.2 ± 0.4
342.94 K, 14994 kPa, x1 = 0.0893 | 1011.6 ± 0.4
342.94 K, 15989 kPa, x1 = 0.0893 | 1012 ± 0.4
342.94 K, 16991 kPa, x1 = 0.0893 | 1012.4 ± 0.4
342.94 K, 17989 kPa, x1 = 0.0893 | 1012.8 ± 0.4
342.94 K, 18984 kPa, x1 = 0.0893 | 1013.2 ± 0.4
342.94 K, 19988 kPa, x1 = 0.0893 | 1013.6 ± 0.4
342.96 K, 1042 kPa, x1 = 0.0607 | 999.5 ± 0.4
342.96 K, 2006 kPa, x1 = 0.0607 | 999.8 ± 0.4
342.96 K, 3028 kPa, x1 = 0.0607 | 1000.3 ± 0.4
342.96 K, 4013 kPa, x1 = 0.0607 | 1000.7 ± 0.4
342.96 K, 5003 kPa, x1 = 0.0607 | 1001.2 ± 0.4
342.96 K, 5994 kPa, x1 = 0.0607 | 1001.6 ± 0.4
342.96 K, 7004 kPa, x1 = 0.0607 | 1002 ± 0.4
342.96 K, 8063 kPa, x1 = 0.0607 | 1002.5 ± 0.4
342.96 K, 9140 kPa, x1 = 0.0607 | 1003 ± 0.4
342.96 K, 10022 kPa, x1 = 0.0607 | 1003.4 ± 0.4
342.96 K, 11032 kPa, x1 = 0.0607 | 1003.7 ± 0.4
342.96 K, 11997 kPa, x1 = 0.0607 | 1004.1 ± 0.4
342.96 K, 13009 kPa, x1 = 0.0607 | 1004.5 ± 0.4
342.96 K, 14001 kPa, x1 = 0.0607 | 1004.9 ± 0.4
342.96 K, 15005 kPa, x1 = 0.0607 | 1005.3 ± 0.4
342.96 K, 16002 kPa, x1 = 0.0607 | 1005.7 ± 0.4
342.96 K, 17011 kPa, x1 = 0.0607 | 1006.1 ± 0.4
342.96 K, 17988 kPa, x1 = 0.0607 | 1006.5 ± 0.4
342.96 K, 18992 kPa, x1 = 0.0607 | 1006.9 ± 0.4
342.96 K, 20154 kPa, x1 = 0.0607 | 1007.3 ± 0.4
352.84 K, 1009 kPa, x1 = 0.1302 | 1004 ± 0.4
352.84 K, 2026 kPa, x1 = 0.1302 | 1004.3 ± 0.4
352.84 K, 3005 kPa, x1 = 0.1302 | 1004.8 ± 0.4
352.84 K, 4006 kPa, x1 = 0.1302 | 1005.3 ± 0.4
352.84 K, 5004 kPa, x1 = 0.1302 | 1005.7 ± 0.4
352.84 K, 5993 kPa, x1 = 0.1302 | 1006.1 ± 0.4
352.84 K, 6991 kPa, x1 = 0.1302 | 1006.5 ± 0.4
352.84 K, 7992 kPa, x1 = 0.1302 | 1006.9 ± 0.4
352.84 K, 8994 kPa, x1 = 0.1302 | 1007.4 ± 0.4
352.84 K, 9980 kPa, x1 = 0.1302 | 1007.8 ± 0.4
352.84 K, 10971 kPa, x1 = 0.1302 | 1008.2 ± 0.4
352.84 K, 11987 kPa, x1 = 0.1302 | 1008.7 ± 0.4
352.84 K, 13040 kPa, x1 = 0.1302 | 1009.1 ± 0.4
352.84 K, 13997 kPa, x1 = 0.1302 | 1009.5 ± 0.4
352.84 K, 14981 kPa, x1 = 0.1302 | 1009.9 ± 0.4
